Here are results for 37 compounds from PubChem BioAssay AID434956 (The Scripps Research Institute Molecular Screening Center, 2010).

SMILES strings stand for the structures. Activity calls are given as the source filed them. No rule for the calls is given here.

This experiment has as its system IEC-6 cytotoxicity, ATP luminescence. The experiment is described as follows: cytotoxicity in IEC-6 intestinal cells, late-stage follow-up, cytotoxicity control for KLF5 inhibitor project, cell-based, luminescence, dose response, round 1 (AID 434956).
One may read the IC50 as the concentration that inhibits the measured activity by half. Turning to `CC(C)(C)c1ccc(-c2noc(CCC(=O)Nc3ccccc3)n2)cc1`, the IC50 is > 39.8 µM (inactive).
For `CC(C)(C)C(=O)Nc1ccc2nn(-c3ccc(F)cc3)nc2c1`, the IC50 was > 39.8 µM (inactive).
Turning to `CC(=O)Nc1ccc2nc(Nc3nc4ccc(F)cc4s3)sc2c1`, the IC50 was 14.7 µM (inactive).
As to `CC(=O)c1sc(NC(=O)c2ccc3ncsc3c2)nc1C`, the IC50 was > 39.8 µM (inactive).
For the compound `CCNC(=O)c1sc(NC(=O)c2ccc3ncsc3c2)nc1C`, the IC50 was > 39.8 µM (inactive).
For `Cc1ccc(OCC(=O)Nc2ccc3nn(-c4cccc(C(F)(F)F)c4)nc3c2)cc1C`, the IC50 was > 39.8 µM (inactive).
With `CC(C)(C)c1ccc(-c2noc(CCCC(=O)Nc3ccccc3Cl)n2)cc1`, the IC50 is > 39.8 µM (inactive).
`CN(C)C(=O)c1ccc2nc(Nc3nc4ccc(F)cc4s3)sc2c1`: the IC50 is 15.7 µM (inactive).
With `CC(NC(=O)c1ccccc1)c1nc(-c2ccc(C(C)(C)C)cc2)no1` (configuration not stated), the IC50 was 41.4 µM (inactive).
For the compound `CC(C)(C)c1ccc(-c2noc(CCC(=O)Nc3ccncc3)n2)cc1`, the IC50 was 25.6 µM (inactive).
The figure for `Cc1nc(NC(=O)c2ccc3ncsc3c2)sc1C(=O)N(C)C` is > 39.8 µM (inactive).
Take `Cc1ccc(-n2nc3ccc(NC(=O)COc4ccc(C)c(C)c4)cc3n2)cc1`: the IC50 was > 39.8 µM (inactive).
In the case of `COc1ccc(-n2nc3ccc(NC(=O)C4CCN(S(=O)(=O)c5ccc(Cl)cc5)CC4)cc3n2)cc1`, the IC50 was 31.2 µM (inactive).
Turning to `CC(C)(C)c1ccc(-c2noc(CCc3nc4ccccc4[nH]3)n2)cc1`, the IC50 is 31.8 µM (inactive).
Turning to `CCOc1ccc2nc(Nc3nc4ccc(F)cc4s3)sc2c1`, the IC50 is > 39.8 µM (inactive).
The figure for `CC(C)C(=O)Nc1ccc2nn(-c3ccc(Cl)cc3)nc2c1` is > 39.8 µM (inactive).
The figure for `CS(=O)(=O)c1ccc2nc(Nc3nc4ccc(F)cc4s3)sc2c1` is 19.1 µM (inactive); for `Cc1cccc(NC(=O)CCc2nc(-c3ccc(C(C)(C)C)cc3)no2)c1` it is > 39.8 µM (inactive); for `CCNC(=O)c1ccc2nc(Nc3nc4ccc(F)cc4s3)sc2c1` it is 14.7 µM (inactive).
For the compound `COc1ccc(-n2nc3cc(C)c(NC(=O)C(C)C)cc3n2)cc1`, the IC50 was > 39.8 µM (inactive).
Regarding `O=C(Nc1cc2nn(-c3ccccc3)nc2cc1Cl)C1CC1`, the IC50 was > 39.8 µM (inactive).
`CC(C)(C)c1ccc(-c2noc(CCC(=O)Nc3ccccn3)n2)cc1`: the IC50 was > 39.8 µM (inactive).
Take `CC(C)(C)c1ccc(-c2noc(CCC(=O)Nc3ccc(N4CCOCC4)nc3)n2)cc1`: the IC50 is > 39.8 µM (inactive).
In the case of `O=C(Nc1cc2nn(-c3ccccc3)nc2cc1Cl)C1COc2ccccc2C1` (configuration not stated), the IC50 was > 39.8 µM (inactive).
Consider `CCOc1ccc(NC(=O)CCc2nc(-c3ccc(C(C)(C)C)cc3)no2)cc1`, for which the IC50 was > 39.8 µM (inactive).
To `CC(C)(C)c1ccc(-c2coc(CCC(=O)Nc3ccccn3)n2)cc1` belongs > 39.8 µM (inactive).
On to `O=C(Cc1ccccc1)Nc1cc2nn(-c3ccccc3)nc2cc1Cl`, for which the IC50 is > 39.8 µM (inactive).
The figure for `Nc1cc2nn(-c3ccccc3)nc2cc1Cl` is > 39.8 µM (inactive); for `CC(C)(C)C(=O)Nc1ccc2nn(-c3ccccc3)nc2c1` it is > 39.8 µM (inactive).
Regarding `COc1ccc2nc(Nc3nc4ccc(F)cc4s3)sc2c1`, the IC50 was > 39.8 µM (inactive).
On to `CC(=O)c1sc(NC(=O)c2ccc3ncsc3c2)nc1-c1ccccc1`, for which the IC50 was > 39.8 µM (inactive).
As for `Cc1ccc(-n2nc3cc(Cl)c(NC(=O)c4cccnc4)cc3n2)cc1`, the IC50 was 17.8 µM (inactive).
`COc1ccc(-n2nc3ccc(NC(=O)C(C)(C)C)cc3n2)cc1`: the IC50 is > 39.8 µM (inactive).
In the case of `CC(C)(C)c1ccc(-c2noc(CCC(=O)NCc3ccccc3)n2)cc1`, the IC50 was 24.1 µM (inactive).
Turning to `O=C(COc1ccccc1)Nc1ccc2nn(-c3cccc(Cl)c3)nc2c1`, the IC50 is > 39.8 µM (inactive).
Regarding `CC(C)c1ccc2nc(Nc3nc4ccc(F)cc4s3)sc2c1`, the IC50 was > 39.8 µM (inactive).
As to `CC1(C)CC(=O)c2sc(NC(=O)c3ccc4ncsc4c3)nc2C1`, the IC50 is > 39.8 µM (inactive).
